Read-outs that look alike come from different tables or passages of the source. No end group written: not given here.
Assays:
Assay type in all cases: cell-based, Human
in vitro = details: human
Procedure: (§1) Experimental design: The experimental design (see FIG. 1) was to seed the HCC38 breast cancer cell line (BCCL) with the p1978 pep-tide in order to determine the effects of the peptide on cell growth. The HCC38 cell line was chosen because of its triple negative receptor status. […] They are more likely to recur than other subtypes of breast cancer.
(§2) The 184B5 (normal breast tissue cells) were seeded to serve as a negative control while the AU565 BCCL, a cell line with a positive Her2/neu and p53 receptor status, was inoculated to serve as a positive control. In the initial phase, treatment cell lines were treated with 8.26 μg/ml of p1978. The con-centration corresponds closely to the average SMR3B (the parent protein of the p1978 peptide), concentration, plus one standard deviation found in healthy breast tissues. A second experiment was performed doubling the concentration of 1978 to 16.52 μg/ml. FIG. 1 represents a schematic of the design used for the study.
(§3) Corresponding unseeded cell lines served as controls. The controls were treated with a placebo containing 1.0 ml of sterile PBS (for cell culture). An expanded dose-response experiment was not performed due to limited resources. The experiment ended 48 hours after seeding. The outcome variables of this study were total cell count, live cell count and percent viability.
(§4) Cell lines: Human breast cell lines HCC38 (HCC38 BL (ATCC® CRL-2346™), AU565 (ATCC® CRL2351™) and 184B5 (ATCC® CRL-8799™) were purchased from the American Type Culture Collection. Cell line descriptions are summarized in Table 1.
(§5) Cell growth procedures: The aforementioned cell lines were thawed in a 37.0 water bath with gentle agitation. The vials were decontaminated and the cells were added drop wise to 9 ml of their prospective culture media while gently mixing. The cell suspension was centrifuged at 1,000 rpm for five minutes. The supernatant was carefully removed and the cell pellet was resuspended in 5.0 ml of media. Each cell line was checked for viability using a hemocytometer and a cell count/ml was calculated. Nine plates were seeded of each cell line at a total of 1.0×10^6 cells/100 mm plates. Once the plates reached 30% confluency, nine plates of each cell line were treated with 8.26 μg/ml (4.95 μM) of p1978 peptide and a set of nine control plates were treated with 1.0 ml of phosphate buffered saline (PBS). They were incubated and harvested by trypsinization in 48 hours. The cells from each plate were counted for the total number of cells and were assessed for viability using the trypan blue exclusion test of cell viability. The same procedures were repeated for the higher 16.52 ug/ml (9.88 uM) dose.
(§6) Statistics: Data was tabulated using SPSS statistical software. The outcome variables of this study were total cell count, live cell count and percent viability. To assess these variables, descriptive statistics were employed to compare p1978 treated cells relative to the control cells. The approach consisted mainly of bar charts, mean cell counts and mean percentages. The cellular growth rate was determined by subtracting the resultant or final cell count from its baseline value. The difference was divided by 48 hours the growing time for the cells. The results were expressed in cells/hour.
(§7) A homoscedastic univariate t-test was computed for differences between the treated and the control groups. The arithmetic mean value of the control group was used as the “cut-point” value. The alpha level was p<0.05.

[1] = tested on: 184B5 cell line (normal breast tissue cells); test: in vitro
Procedure: as §1, §2, §3, §4, §5, §6, §7

[2] = tested on: HCC38 breast cancer cell line (triple negative); test: Cell growth: total and live cell count, trypan blue exclusion viability, 48 hours after seeding with p1978; design: key to Total growth rate, Treated / Live growth rate, Treated: N.G. = Negative Growth
Procedure: as §1, §2, §3, §4, §5, §6, §7

[3] = tested on: AU565 breast cancer cell line (Her2/neu and p53 positive)
Procedure: as §1, §2, §3, §4, §5, §6, §7

[4] = 184B5, 8.26 ug/ml p1978, 48 hours
[5] = 184B5, 8.26 μg/ml p1978, over 48 hours
[6] = 184B5, 16.52 ug/ml p1978, 48 hours
[7] = 184B5, 16.52 μg/ml p1978, 48 hours
[8] = 184B5, 16.52 μg/ml p1978, over 48 hours
[9] = HCC38, 8.26 μg/ml p1978, over 48 hours
[10] = HCC38, 16.52 μg/ml p1978, 48 hours
[11] = HCC38, 16.52 μg/ml p1978, over 48 hours
[12] = AU565, 8.26 ug/ml p1978, 48 hours
[13] = AU565, 8.26 μg/ml p1978, over 48 hours
[14] = AU565, 16.52 μg/ml p1978, 48 hours
[15] = AU565, 16.52 μg/ml p1978, 48 hours, footnote: * represents 10^5
[16] = AU565, 16.52 μg/ml p1978, over 48 hours

PRGPYPPGPLAPPQ [p1978, PRGPYPPGPLAPPQ]
viability at 48 hours, 8.26 μg/ml (in vitro): 91%
viability at 48 hours, 16.52 μg/ml (in vitro): 95 to 98%
difference in growth rate between the treated and the controls ([1]; 184B5, 8.26 ug/ml p1978): almost negligible difference
higher living cell count for the treated cells as compared to the control [1, 4]: 3.5%
higher total cell count for the treated cells as compared to the control [1, 4]: 7.5%
Live growth rate, Treated [1, 5]: 0.59 10^4 cells/hour
Total growth rate, Treated [1, 5]: 1.11 10^4 cells/hour
effect on cell viability or growth rate ([1]; 184B5, 16.52 ug/ml p1978): no effect
increase in the living cell count for the treated cells as compared to the control [1, 6]: 63.7%
increase in the total cell count for the treated cells as compared to the control [1, 6]: 22.4%
% Live, Treated [1, 7]: 98%
Live × 10^6 (mean cell count with standard deviation), Treated [1, 7]: 4.82 (±0.75) × 10^6
Live × 10^6, Treated - Baseline [1, 7]: 2.57 × 10^6
Live × 10^6, Treated - Control [1, 7]: 1.00 × 10^6
Total × 10^6 (mean cell count with standard deviation), Treated [1, 7]: 4.91 (±0.63) × 10^6
Total × 10^6, Treated - Baseline [1, 7]: 2.62 × 10^6
Total × 10^6, Treated - Control [1, 7]: 0.90 × 10^6
Live growth rate, Treated [1, 8]: 2.77 10^4 cells/hour
Total growth rate, Treated [1, 8]: 7.83 10^4 cells/hour
reduction of total cell count versus control ([2]; HCC38, 8.26 ug/ml p1978, 48 hours): 20.8%
reduction of living cell count versus control ([2]; HCC38, 8.26 ug/ml p1978, 48 hours, t=−3.25, p 0.08): 33.2%
Live growth rate, Treated [2, 9]: N.G.
Total growth rate, Treated [2, 9]: N.G.
growth rate difference, treated versus control ([2]; HCC38, 16.52 ug/ml p1978): −38%
average total number of cells higher in control than in treated (knockdown effect) ([2]; HCC38, 16.52 ug/ml p1978, 48 hours): 22.4%
% Live, Treated [2, 10]: 92%
Live × 10^6 (mean cell count with standard deviation), Treated [2, 10]: 1.87 (±0.43) × 10^6
Live × 10^6, Treated - Baseline [2, 10]: 1.10 × 10^6
Live × 10^6, Treated - Control [2, 10]: −0.67 × 10^6
Total × 10^6 (mean cell count with standard deviation), Treated [2, 10]: 2.03 (±0.62) × 10^6
Total × 10^6, Treated - Baseline [2, 10]: 1.03 × 10^6
Total × 10^6, Treated - Control [2, 10]: −0.61 × 10^6
decrease in the number of living cells as compared to the control ([2]; HCC38, 16.52 ug/ml p1978, 48 hours, t=−3.08, p<0.05): 37.9%
Live growth rate, Treated [2, 11]: 2.29 10^4 cells/hour
Total growth rate, Treated [2, 11]: 2.16 10^4 cells/hour
live cell count higher than control group [3, 12]: 11.7%
total cell count higher than control group [3, 12]: 31.5%
Live growth rate, Treated [3, 13]: 0.77 10^4 cells/hour
Total growth rate, Treated [3, 13]: 1.38 10^4 cells/hour
knockdown effect on cell count ([3]; AU565, 16.52 ug/ml p1978): No knockdown effect
increase in living cell count ([3]; AU565, 16.52 ug/ml p1978, 48 hours): 23.1%
% Live, Treated [3, 14]: 75%
Live × 10^6 (mean cell count with standard deviation), Treated [3, 14]: 1.60 (±0.42) × 10^6
Live × 10^6, Treated - Control [3, 14]: 0.30 × 10^6
Total × 10^6 (mean cell count with standard deviation), Treated [3, 14]: 2.14 (±0.50) × 10^6
Total × 10^6, Treated - Control [3, 14]: 0.27 × 10^6
Live, Treated - Baseline [3, 15]: 0.24* 10^5
Total, Treated - Baseline [3, 15]: 0.24* 10^5
Live growth rate, Treated [3, 16]: 0.50 10^4 cells/hour
Total growth rate, Treated [3, 16]: 0.50 10^4 cells/hour
percent viability, treated ([3]; human, 48 hours, 8.26 ug/ml): 61%
